In article PMC10140010 (Investigational New Drugs, 2023):
“And” between values parts separate entries of the source, which are not always exact repeats. Equal values may be shown once.

What was measured:
[1] = test system: OAT3; experiment: Uptake substrate investigation in HEK293 cells expressing transporter; conditions: ATV 1 μM, no inhibitor, OAT3 pre-test
[2] = test system: OAT1; experiment: as above; conditions: ATV 1 μM, no inhibitor, OAT1 pre-test
[3] = test system: OATP1B3; experiment: as above
[4] = test system: ALK; conditions: cited from earlier work
[5] = test system: LU-01-0015 (HIP-ALK) patient derived lung-tumor xenografts; experiment: LU-01-0015 patient-derived xenograft model (tumor volume, body weight); assay type: in vivo, BALB/c nude mice; conditions: LU-01-0015 and NCI-H3122 xenograft models, all P < 0.05
Procedure: Female BALB/c nude mice (4–6 weeks old) were provided by Shanghai Sipple-Bikai Laboratory Animal Co., Ltd. and Beijing Vital River Laboratory Animal Technology Co., Ltd. The mice were housed in a specific pathogen-free environment under a 12 h light/dark cycle, and had free access to sterile animal feed and water.
PDX and CDX models were used for in vivo studies. Patient-derived tumors tissues were divided into about 30 mm^3 and transplanted into the right dorsal subcutis. Treatment began when the tumor size reached to 200 mm^3. The mice were randomly assignied into the corresponding dosing groups (9 mice in each group). Drugs were deliverd via daily oral for 4 weeks. Tumor size was measured periodically using a digital caliper (Cal Pro, Sylvac, Switzerland), and tumor volume was calculated as 0.5 × length × width^2. For more detailed information, please refer to Supplementary materials. All procedures and protocols of xenograft models were approved by the Institutional Animal Care and Use Committee of WuXi AppTec.
Patient-derived tumor tissue was segmented into small pieces of approximately 20–30 mm^3 and transplanted subcutaneously into the right back of mice. When the tumor volume reached 150-200 mm^3, the mice were randomly divided into corresponding groups (9 mice in each group, female). Administered by gavage once daily for 4 weeks.

[6] = target: T1, BCRP (Homo sapiens, UniProt Q9UNQ0); experiment: ABC efflux transporter inhibitor test on Caco-2 cells (E3S efflux)
T1 sequence (Q9UNQ0 1-655): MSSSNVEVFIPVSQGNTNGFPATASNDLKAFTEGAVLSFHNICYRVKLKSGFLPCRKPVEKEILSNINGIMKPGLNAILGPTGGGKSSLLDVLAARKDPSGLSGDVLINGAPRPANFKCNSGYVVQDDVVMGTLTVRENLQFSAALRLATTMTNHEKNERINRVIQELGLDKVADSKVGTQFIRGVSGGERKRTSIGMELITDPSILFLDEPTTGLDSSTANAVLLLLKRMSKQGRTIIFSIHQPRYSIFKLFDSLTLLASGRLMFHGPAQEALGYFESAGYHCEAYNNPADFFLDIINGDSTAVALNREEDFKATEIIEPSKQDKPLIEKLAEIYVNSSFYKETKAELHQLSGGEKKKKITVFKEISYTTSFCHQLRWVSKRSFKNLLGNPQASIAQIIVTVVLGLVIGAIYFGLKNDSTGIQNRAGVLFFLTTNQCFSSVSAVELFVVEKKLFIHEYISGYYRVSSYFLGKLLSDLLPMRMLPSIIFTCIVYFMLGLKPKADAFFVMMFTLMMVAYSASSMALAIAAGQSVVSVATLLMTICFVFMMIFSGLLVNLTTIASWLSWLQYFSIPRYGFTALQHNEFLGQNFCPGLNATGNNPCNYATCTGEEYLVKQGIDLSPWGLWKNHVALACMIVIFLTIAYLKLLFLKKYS

[7] = target: T2, MATE1 (Homo sapiens, UniProt Q96FL8); experiment: Substrate investigation in HEK293 cells expressing transporter; assay type: in vitro ADME; design: No ESH8G27; host or cells: HEK293; conditions: MPP 10 μM, no inhibitor, pre-test
T2 sequence (Q96FL8 1-570): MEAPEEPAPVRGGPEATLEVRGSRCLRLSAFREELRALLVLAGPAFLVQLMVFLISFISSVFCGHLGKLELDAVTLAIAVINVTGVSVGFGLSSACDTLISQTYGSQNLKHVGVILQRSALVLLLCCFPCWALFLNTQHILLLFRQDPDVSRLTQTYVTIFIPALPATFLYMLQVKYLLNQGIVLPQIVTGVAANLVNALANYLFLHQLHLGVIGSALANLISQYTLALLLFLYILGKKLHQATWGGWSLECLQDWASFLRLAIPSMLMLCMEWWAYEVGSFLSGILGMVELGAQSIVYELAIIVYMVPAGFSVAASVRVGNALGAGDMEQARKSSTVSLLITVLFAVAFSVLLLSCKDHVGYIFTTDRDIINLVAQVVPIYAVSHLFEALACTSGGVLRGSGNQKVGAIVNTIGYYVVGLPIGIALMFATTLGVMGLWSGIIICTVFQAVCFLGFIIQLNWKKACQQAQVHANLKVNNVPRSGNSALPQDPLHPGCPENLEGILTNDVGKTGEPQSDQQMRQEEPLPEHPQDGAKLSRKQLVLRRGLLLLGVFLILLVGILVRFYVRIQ

[8] = target: T3, OCT2 (Homo sapiens, UniProt O15244); experiment: Uptake substrate investigation in HEK293 cells expressing transporter; assay type: in vitro ADME; conditions: 20 μM, Suppl. Table 11
T3 construct: No ESH9G27; host or cells: HEK293
T3 sequence (O15244 1-555): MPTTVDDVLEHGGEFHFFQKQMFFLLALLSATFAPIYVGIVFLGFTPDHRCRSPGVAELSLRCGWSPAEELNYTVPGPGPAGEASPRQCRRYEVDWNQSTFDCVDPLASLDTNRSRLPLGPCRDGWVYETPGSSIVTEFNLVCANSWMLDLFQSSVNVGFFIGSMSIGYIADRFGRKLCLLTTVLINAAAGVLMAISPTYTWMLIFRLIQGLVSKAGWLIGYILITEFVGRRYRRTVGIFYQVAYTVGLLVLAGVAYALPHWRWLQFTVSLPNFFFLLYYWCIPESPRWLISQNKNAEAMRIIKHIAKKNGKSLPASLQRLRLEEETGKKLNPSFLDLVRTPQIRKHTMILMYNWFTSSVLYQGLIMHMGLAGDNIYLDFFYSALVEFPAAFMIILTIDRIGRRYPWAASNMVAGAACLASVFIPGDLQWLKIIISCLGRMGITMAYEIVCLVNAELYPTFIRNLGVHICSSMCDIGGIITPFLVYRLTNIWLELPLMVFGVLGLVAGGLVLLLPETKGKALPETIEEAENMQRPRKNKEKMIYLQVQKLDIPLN

[9] = target: T2, MATE1; experiment: Uptake inhibitor investigation in HEK293 cells expressing transporter; conditions: HEK293 cells expressing MATE1, probe MPP, 10 μM
[10] = MOCK293, ATV 1 μM, no inhibitor, OATP1B3 pre-test
[11] = OATP1B1-293 (so in the source), ATV 1 μM, no inhibitor, OATP1B3 pre-test

CC(C)c1c(C(=O)Nc2ccccc2)c(-c2ccccc2)c(-c2ccc(F)cc2)n1CC[C@@H](O)C[C@@H](O)CC(=O)O [ATV]
Uptake transport activity, Mean ([1]; MOCK293): 75.16 pmol/mg protein/min
Uptake transport activity, Repeat 1 / Repeat 2 ([1]; MOCK293): 59.57 pmol/mg protein/min and 90.74 pmol/mg protein/min
Uptake transport activity, Mean ([1]; OATP1B1-293 (so in the source)): 727.9 pmol/mg protein/min
Uptake transport activity, Repeat 1 / Repeat 2 ([1]; OATP1B1-293 (so in the source)): 731.6 pmol/mg protein/min and 724.2 pmol/mg protein/min
Uptake transport activity, Net value ([1]; transporter cells vs MOCK293): 652.7 pmol/mg protein/min
Uptake transport activity, Mean ([2]; MOCK293): 3.393 pmol/mg protein/min
Uptake transport activity, Repeat 1 / Repeat 2 ([2]; MOCK293): 3.281 pmol/mg protein/min and 3.505 pmol/mg protein/min
Uptake transport activity, Mean ([2]; OATP1B1-293 (so in the source)): 31.40 pmol/mg protein/min
Uptake transport activity, Repeat 1 / Repeat 2 ([2]; OATP1B1-293 (so in the source)): 36.42 pmol/mg protein/min and 26.39 pmol/mg protein/min
Uptake transport activity, Net value ([2]; transporter cells vs MOCK293): 28.01 pmol/mg protein/min
Uptake transport activity, Mean ([3]; MOCK293 (OATP1B3 set), 1 μM, Suppl. Table 11): 2.359 pmol/mg protein/min
Uptake transport activity, Mean [3, 10]: 3.030 pmol/mg protein/min
Uptake transport activity, Repeat 1 / Repeat 2 [3, 10]: 2.810 pmol/mg protein/min and 3.250 pmol/mg protein/min
Uptake transport activity, Mean [3, 11]: 13.60 pmol/mg protein/min
Uptake transport activity, Repeat 1 / Repeat 2 [3, 11]: 14.30 pmol/mg protein/min and 12.90 pmol/mg protein/min
Uptake transport activity, Net value ([3]; transporter cells vs MOCK293, ATV 1 μM, no inhibitor, OATP1B3 pre-test): 10.6 pmol/mg protein/min

Cc1cc(Nc2ncc(Cl)c(Nc3ccccc3S(=O)(=O)C(C)C)n2)c(OC(C)C)cc1C1CCNCC1 [Ceritinib]
GI50 ([4]; in vitro enzymatic study against ALK, read-out: half-maximal growth inhibition concentration (GI50)): 0.15 nM
fold more potent against ALK than crizotinib ([4]; in vitro enzymatic study): ~ 20 fold
tumor growth inhibition [5]: able to inhibit tumor growth

C[C@]12CC[C@@H]3c4ccc(OS(=O)(=O)O)cc4CC[C@H]3[C@@H]1CCC2=O [E3S, reference compound]
Exhaust Ratio Mean ([6]; E3S 10 µM alone, Caco-2): 20.54

COc1cc2c(cc1OC)CN(CCc1ccc(NC(=O)c3cccc4c(=O)c5cccc(OC)c5[nH]c34)cc1)CC2 [Elacridar, reference compound]
inhibition at 10 µM ([6]; human, Caco-2 cells, probe E3S (10 µM), Exhaust inhibition rate (%), substrate E3S 10 µM, inhibitor 10 µM): 91.6%
Exhaust inhibition rate (%) ([6]; substrate E3S 10 µM, inhibitor 10 µM): 91.7%

C[n+]1ccc(-c2ccccc2)cc1 [MPP]
Uptake transport activity, Mean ([7]; MATE1-293): 1162.7 pmol/mg protein/min
Uptake transport activity, Repeat 1 / Repeat 2 ([7]; MATE1-293): 942.2 pmol/mg protein/min and 1383.2 pmol/mg protein/min
Ratio of uptake transit activity ([7]; MATE1-293 vs MOCK293): 6.86
Uptake transport activity, Net value ([7]; MATE1-293 vs MOCK293): 993.3 pmol/mg protein/min
Uptake transport activity, Mean ([7]; MOCK293): 169.4 pmol/mg protein/min
Uptake transport activity, Repeat 1 / Repeat 2 ([7]; MOCK293): 163.5 pmol/mg protein/min and 175.3 pmol/mg protein/min

CN(C)C(=N)N=C(N)N [Metformin]
Uptake transport activity, Mean ([8]; MOCK293 (OCT2 set)): 3.503 pmol/mg protein/min
Uptake transport activity, Mean ([8]; OCT2-293): 82.72 pmol/mg protein/min
Ratio of uptake transit activity ([8]; OCT2-293 vs MOCK293): 23.61
Uptake transport activity, Net value ([8]; OCT2-293 vs MOCK293): 79.21 pmol/mg protein/min

CCc1nc(N)nc(N)c1-c1ccc(Cl)cc1 [Pyrimethamine]
inhibition at 2 μM [9]: 123%
